Measurements: patent publication US9763908B2, “Composition containing monoacetyldiglyceride compound as active ingredient for preventing or treating atopic dermatitis” (ENZYCHEM LIFESCIENCES CORPORATION, priority 2013, dated 2017)

How the values were obtained:
IFN-γ = IFN-γ from ConA-activated lymphocytes of normal healthy people given EC-18 for four weeks (ELISA); type: in vivo, human
Method: (§1) EC-18 was administered to the normal healthy people (36 people) four weeks. EC-18 Lymphocytes separated from the blood before administration and after administration were incubated with ConA (concanavalin A). In order to measure the cytokine (IFN-γ and IL-4) which is separated from the lymphocyte (T cell) activated by Con A, culture medium was incubated for 42 hours, and were stored frozen. Purified antibody (capture antibody) of cytokine to be measured was dispensed to well (Nunc-immuno module, polysorp) by 0.2 μg/well, and left overnight at 4° C. to coat antigen. After well washing, blocking buffer (1% bovine serum albumin) treatment was performed for about 1 hour to inhibit the nonspecific binding. After washing the well, a cell culture solution was placed into each well and the antibody was combined with coating antigen for 2 hours. […] After approximately 10-30 minutes, stop solution was added into the well and absorbance at 450-570 nm was measured with Automatic Microplate reader (Molecular Devices, CA, USA). In the same manner, absorbance according to cytokine solution concentration was measured to plot standard curve, and the amount of cytokine contained in the sample was calculated by substituting the absorbance of the sample group. The change amount of cytokine calculated in this manner and significance (P<0.05) were shown in flowing Table 1 and FIGS. 5-6.

IL-4 [1] = assay: IL-4 level in serum (ELISA) of mice with DNCB-induced atopic dermatitis after oral EC-18; type: in vivo, mouse
Method: (§2) DNCB (1-Chloro-2,4-dinitrobenzene, Sigma Aldrich) was diluted to 0.2% by the solvent in which olive oil and acetone were mixed in a ratio of 1:4. Diluted DNCB was applied onto back of each 7-week-old Balb/c mouse whose hairs on back were removed. During the first week application was made seven times continuously, and from the second week, application was made every two days to induce atopy.
A mixture of EC-18 and olive oil was orally administrated to the mouse 7 times during the first week by 100 μl each time in dose of 2 mq/rat, and after then, for 11 times, was administered orally by 100 μl each time in dose of 1 mg/rat, that is the mixture was orally administrated totally 18 times. For the measurement of IL-4, blood was collected from veins under the eyes of mice treated, through ocular blood (Eye bleeding) method. […] After collecting the blood of about 350 μl in the EP tube, the blood was centrifuged to separate only serum and IL-4 present in the serum was analyzed by ELISA (enzyme-linked immunosorbent assay) method. […] When the color development is completed, the stop solution (2N H2SO4+DW) was dispensed by 100 μl, and the amount of color development at 450 nm wavelength was measured at ELISA Reader. […]

[2] = GLP toxicity test; stated as known; cited from earlier work
IgE = IgE level in serum (ELISA) of mice with DNCB-induced atopic dermatitis after oral EC-18; type: in vivo, mouse
Method: as §2
Using the serum separated from the mouse blood, was measured the expression levels of IgE in the ELISA method as shown in Experimental Example 1. In IgE ELISA for the mouse, IgE capture antibody (BD bioscience) was diluted with 1×PBS to 2 μg/ml, dispensed to each of 96-well plate (Thermo) by 200 μl, coated for 12 hours, washed using a wash buffer in which 0.05% tween 20 was diluted in 1×PBS. After washing three times, 1% BSA was dispensed to each well by 200 μl and blocking buffer was placed for 1 hour at room temperature (RT) conditions, and then final washing was performed._Thereafter, the serum obtained from the mice was dispensed to each well by 100 μl, and the wells were placed for reaction at room temperature for 1 hours after dispensing, and unreacted IgE is washed under the same conditions. […] When the color development is completed, the stop solution (2N H2SO4+DW) was dispensed by 50 μl, and the amount of color development at 450 nm wavelength was measured. […]

[3] = tested on: DNCB-induced atopic dermatitis in Balb/c mouse; assay: Visual inspection of the degree of atopic disease in the DNCB-induced mouse model; type: in vivo; settings: score 0 to 12
Method: as §2
Atopic disease models commonly used in the laboratory is a technique that induces contact Hypersensitivity (CHS) by sensitization to DNCB (1-Chloro-2,4-dinitro-benzene). This technique is a technique of inducing atopic by diluting DNCB with a solvent in which acetone and olive oil are mixed in a ratio of 4:1 to be 0.2%, and then smearing the diluted on the skin, and is for the experiment for adjusting and maintaining the expression time so that artificially severe atopy-like appearance appears could be observed two weeks after the smearing. The degree of atopic disease was evaluated by dividing the state of erythema/emorrhage, scarring/dryness, edema), excoriation/erosion which are induced on the skin, respectively into three steps (0=null, 1=mild, 2=moderate, 3=severe) and then assigning the score up to 12 from zero. It was induced in the experimental group and the control group that the time when severe atopic status ((visual inspection index of 10) is reached was two weeks after the smearing of DNCB. Further, in order to maintain this condition, after two weeks, DNCB smearing was performed every two days.
FIG. 4 is a photograph showing the degree of atopic disease for 3 weeks in mice of the EC-18 administration group (test group) and the mice of olive oil administration group (control group). […] In contrast, in the test group the administration of EC-18, visual inspection index was changed to 1 point after one week, 8 points after two weeks and 3 points after three weeks.

[4] = tested on: atopic symptoms in patients; assay: Observation of atopic symptom alleviation in patients with atopic; type: in vivo, human; settings: 500 mg/day; 2 weeks (severe symptoms) or 2 days (mild skin rash); FIGS. 7 and 8
Method: To patients with severe atopic symptoms, the EC-18 was administrated every day at a dose of 500 mg/day for 2 weeks and atopic symptoms change which was taken were shown in FIG. 7. To a patient having a mild skin rash, the EC-18 was administrated every day at a dose of 500 mg/day for 2 days and atopic symptoms change which was taken were shown in FIG. 8.

sepsis animal model = settings: cecal-ligation-puncture sepsis model; stated as known; cited from earlier work
IL-4 [5] = assay: IL-4 from ConA-activated lymphocytes of normal healthy people given EC-18 for four weeks (ELISA); type: in vivo, human
Method: as §1

[6] = DNCB-induced atopic dermatitis model animals

CCCCC/C=C\C/C=C\CCCCCCCC(=O)OC(COC(C)=O)COC(=O)CCCCCCCCCCCCCCC (centres unmarked) [EC-18, 1-palmitoyl-2-linoleoyl-3-acetylglycerol]
IFN-γ after EC-18 administration (IFN-γ; N = 36, four weeks of administration, before administration 686.4 ± 162.2, P 0.473): 611.9 ± 209.7 pg/mL
expression level of Th1 cytokine (IFN-γ), in words (IFN-γ; normal subjects, 4 weeks, FIG. 6): the change did not occur uniformly
IL-4 level compared to the untreated group (olive oil treatment group), in words (IL-4 [1]; [6]): significantly decreased
reduction of IL-4 level (IL-4 [1]; serum, two weeks vs one week after administration, oral EC-18 in olive oil, olive oil control approximately 50%): 80%
toxicity [2]: no-toxicity
IgE level compared to the untreated group (olive oil treatment group), in words (IgE; [6]): significantly decreased
reduction of IgE level (IgE; serum, two weeks vs one week after administration, oral EC-18, olive oil control approximately 22%): about 50%
visual inspection index ([3]; after one week, olive oil control 3 points): 1 point
visual inspection index ([3]; after three weeks, olive oil control 6 points): 3 points
visual inspection index ([3]; after two weeks, olive oil control 10 points): 8 points
atopic symptoms change [4]: the atopic symptoms are relaxed
survivability ratio of animals (sepsis animal model): increases survivability ratio of animals
IL-4 after EC-18 administration (IL-4 [5]; N = 36, four weeks of administration, before administration 246.6 ± 186.9, P <0.001): 96.1 ± 64.2 pg/mL
expression level of Th2 cytokine (IL-4), in words (IL-4 [5]; normal subjects, 4 weeks, FIG. 5): reduced the expression levels of Th2 cytokine (IL-4)
